This note sets out measurements from patent US8273752B2, “Substituted imidazopyrimidines and triazolopyrimidines” (Bayer Intellectual Property GmbH, priority 2007, dated 2012).

One may read the IC50 as the midpoint of a concentration-inhibition curve. The low end stands for greater potency, the high end for weaker potency.

Where a name gives a salt, the structure may show the parent alone.

In this experiment the target is T1, GSK3β (Homo sapiens, UniProt P49841).
T1 construct: purchased Upstate xy
The experiment in a line: GSK3β biochemical in vitro assay (fluorescence, NADH-coupled). The note with it: 5 nM GSK3β, 40 μM substrate GSM, 50 μM ATP, 30° C., 2 hours. On the procedure:
The inhibitory activity of active substances is determined in a biochemical assay. The ingredients required for this purpose are mixed in a black 384-well microtitre plate with transparent base (from Greiner, catalogue number 781092). The requirements in this connection for each well of the 384-well microtitre plate are 5 nM GSK3β (from Upstate, catalogue number xy), 40 μM GSK3B substrate GSM (sequence H-RRRPASVPPSPSLSRHS-(pS)-HQRR, from Upstate, catalogue number 2-533), 30 μM nicotinamide adenine dinucleotide NADH (Roche Diagnostics, catalogue number 10107735), 50 μM adenosine triphosphate ATP (from Sigma, catalogue number A7966), and 2 mM phosphoenolpyruvate (from Roche, catalogue number 128112). The required reaction buffer in which the biochemical reaction takes place consists of 50 mM Trizma hydrochloride tris-HCl pH: 7.5 (from Sigma, catalogue number T3253), 5 mM magnesium chloride MgCl2 (from Sigma, catalogue number M8266), 0.2 mM DL-dithiothreitol DTT (from Sigma, catalogue number D9779), 2 mM ethylenediaminethertetraacid EDTA (from Sigma, catalogue number E6758), 0.01% Triton X-100 (from Sigma, catalogue number T8787) and 0.05% bovine serum albumin BSA (from Sigma, catalogue number B4287).
Active substances are dissolved in dimethyl sulphoxide DMSO (from Sigma, catalogue number D8418) in a concentration of 10 mM. Active substances are added in serial concentrations of 10 μM, 1 μM, 0.1 μM, 0.01 μM, 0.001 μM, 0.0001 μM, 0.00001 μM, 0.000001 μM to the mixtures of the biochemical reaction. As control, dimethyl sulphoxide is added instead of substance in a final concentration of 0.1%.
The reaction is incubated at 30° C. for 2 hours and then the resulting fluorescence is measured in a Tecan Safire-XFLUOR4 instrument, version V4.50 (serial number 12901300283) with the specifications: measurement mode—fluorescence measured from below, extinction wavelength 340 nm, emission wavelength 465 nm, slit width extinction 5 nm, slit width emission 5 nm, gain mode 120, delay 0 μs, number of light flashes per measurement 3, and an integration time of 40 μs.
The activity of the active substances is calculated in relation to these 0% and 100%.

T1 sequence (P49841 whole entry, species assumed): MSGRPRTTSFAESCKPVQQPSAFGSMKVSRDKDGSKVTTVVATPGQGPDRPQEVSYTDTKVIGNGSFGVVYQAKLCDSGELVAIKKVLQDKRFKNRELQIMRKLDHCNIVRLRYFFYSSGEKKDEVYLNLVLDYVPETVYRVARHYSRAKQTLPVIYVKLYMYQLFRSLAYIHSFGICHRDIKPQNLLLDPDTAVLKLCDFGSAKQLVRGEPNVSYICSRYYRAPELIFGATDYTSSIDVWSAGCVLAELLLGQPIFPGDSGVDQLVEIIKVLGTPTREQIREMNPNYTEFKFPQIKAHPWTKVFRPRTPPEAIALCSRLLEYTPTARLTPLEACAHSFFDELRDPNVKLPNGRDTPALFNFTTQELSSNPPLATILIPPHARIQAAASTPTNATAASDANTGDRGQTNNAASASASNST

With `Nc1nc(NCCNc2nc(-c3ccc(Cl)cc3Cl)cc3nc(CN4CCOCC4)cn23)ccc1[N+](=O)[O-]` [Example 81, N^6-(2-{[7-(2,4-Dichlorophenyl)-2-(morpholin-4-ylmethyl)imidazo[1,2-c]pyrimidin-5-yl]amino}ethyl)-3-nitropyridine-2,6-diamine trifluoroacetate], it took 0.008 µM to reach half-maximal inhibition (IC50). Then `N#Cc1ccc(NCCNc2nc(-c3ccc(C(F)(F)F)cc3)cc3ncnn23)nc1` [Example 93, 6-{[2-({7-[4-(Trifluoromethyl)phenyl][1,2,4]triazolo[1,5-c]pyrimidin-5-yl}amino)ethyl]amino}-nicotinonitrile], with 0.072 µM. Then `CN1CCN(C(=O)c2cn3c(NCCNc4ccc(C#N)cn4)nc(-c4ccc(Cl)cc4Cl)cc3n2)CC1` [Example 111], with 0.089 µM. Then `CN(C)CCNC(=O)c1cn2c(NCCNc3ccc(C#N)cn3)nc(-c3ccc(Cl)cc3Cl)cc2n1` [Example 112], with 0.054 µM. The molecule `CN1CCN(CCNC(=O)c2cn3c(NCCNc4ccc(C#N)cn4)nc(-c4ccc(Cl)cc4Cl)cc3n2)CC1` [Example 113] displayed an IC50 of 0.041 µM. The result for `N#Cc1ccc(NCCNc2nc(-c3ccc(Cl)cc3Cl)cc3nc(C(=O)NCC(=O)O)cn23)nc1` [Example 115] reads 0.005 µM; that for `N#Cc1ccc(NCCNc2nc(-c3ccc(C(F)(F)F)cc3)cc3nc(C(=O)NCCO)cn23)nc1` [Example 117], 0.094 µM; that for `N#Cc1ccc(NCCNc2nc(-c3ccc(C(F)(F)F)cc3)cc3nc(C(=O)NC(CO)CO)cn23)nc1` [Example 120], 0.124 µM.

`CC(=O)c1sc(NC2CCCN(c3nc(-c4ccc(Cl)cc4Cl)cc4nccn34)C2)nc1N` (stereo not drawn) [Example 128, 1-[4-amino-2-({1-[7-(2,4-dichlorophenyl)imidazo[1,2-c]pyrimidin-5-yl]piperidin-3-yl}amino)-1,3-thiazol-5-yl]ethanone trifluoroacetate] returned an IC50 of 0.003 µM. This IC50 lies about 41-fold lower than the previous one.

With `Nc1nc(NCCNc2nc(-c3ccc(Cl)cc3Cl)cc3nccn23)sc1C(=O)C(F)(F)F` [Example 129], half-maximal inhibition (IC50) required 0.007 µM. Then `Nc1nc(NCCNc2nc(-c3ccc(Cl)cc3Cl)cc3nccn23)sc1C(=O)C1CC1` [Example 131], with 0.006 µM; and `COC(=O)c1sc(NCCNc2nc(-c3ccc(Cl)cc3Cl)cc3nccn23)nc1N` [Example 134], with 0.022 µM. The result for `CC(=O)c1sc(NCCNc2nc(-c3ccc(Cl)cc3Cl)cc3nccn23)nc1N` [Example 137] reads 0.005 µM. The result for `N#Cc1ccc(NCCNc2nc(-c3ccc(Cl)cc3Cl)cc3nc(CN4CCOCC4)cn23)nc1` [Example 145, 6-[(2-{[7-(2,4-Dichlorophenyl)-2-(morpholin-4-ylmethyl)imidazo[1,2-c]pyrimidin-5-yl]amino}-ethyl)amino]pyridine-3-carbonitrile trifluoroacetate] reads 0.062 µM; that for `CN(C)Cc1cn2c(NCCNc3ccc([N+](=O)[O-])c(N)n3)nc(-c3ccc(Cl)cc3Cl)cc2n1` [Example 147, N^6-[2-({7-(2,4-Dichlorophenyl)-2-[(dimethylamino)methyl]imidazo[1,2-c]pyrimidin-5-yl}amino)-ethyl]-3-nitropyridine-2,6-diamine trifluoroacetate], 0.024 µM. In turn, `N#Cc1ccc(NCCNc2nc(-c3ccc(Cl)cc3Cl)cc3nccn23)nc1N` [Example 148, 2-Amino-6-[(2-{[7-(2,4-dichlorophenyl)imidazo[1,2-c]pyrimidin-5-yl]amino}ethyl)amino]-pyridine-3-carbonitrile] registered an IC50 of 0.012 µM. Against the preceding molecule, the IC50 is about 2-fold lower. Molecule `Nc1nc(NCCNc2nc(-c3ccc(Cl)cc3Cl)cc3nccn23)ccc1C(=O)C(F)(F)F` [Example 149, 1-{2-Amino-6-[(2-{[7-(2,4-dichlorophenyl)imidazo[1,2-c]pyrimidin-5-yl]amino}ethyl)amino]-pyridin-3-yl}-2,2,2-trifluoroethanone hydrochloride] had an IC50 of 0.01 µM. The result for `CC(=O)c1ccc(NCCNc2nc(-c3ccc(Cl)cc3Cl)cc3nccn23)nc1N` [Example 150, 1-{2-Amino-6-[(2-{[7-(2,4-dichlorophenyl)imidazo[1,2-c]pyrimidin-5-yl]amino}ethyl)amino]-pyridin-3-yl}ethanone hydrochloride] reads 0.011 µM; that for `N#Cc1ccc(NCCNc2nc(-c3ccc(Cl)cc3Cl)cc3ncc(Br)n23)nc1` [Example 153, 6-[(2-{[3-Bromo-7-(2,4-dichlorophenyl)imidazo[1,2-c]pyrimidin-5-yl]amino}ethyl)amino]-pyridine-3-carbonitrile], 0.014 µM. For the molecule `N#Cc1ccc(NCCNc2nc(-c3ccc(Cl)cc3Cl)cc3ncc(Cl)n23)nc1` [Example 154, 6-[(2-{[3-Chloro-7-(2,4-dichlorophenyl)imidazo[1,2-c]pyrimidin-5-yl]amino}ethyl)amino]-pyridine-3-carbonitrile], half-maximal inhibition (IC50) was put at 0.019 µM.

Consider `COC(=O)c1ccc(NCCNc2nc(-c3ccc(Cl)cc3Cl)cc3ncnn23)nc1N` [Example 167], for which half-maximal inhibition (IC50) required 0.061 µM. Then `N#Cc1ccc(NCCNc2nc(-c3ccc(C(F)(F)F)cc3)cc3nc(CN4CCOCC4)nn23)nc1N` [Example 180], with 0.05 µM; and `N#Cc1sc(NCCNc2nc(-c3ccc(Cl)cc3Cl)cc3nc(CN4CCOCC4)nn23)nc1N` [Example 185], with 0.039 µM; and `N#Cc1sc(NCCNc2nc(-c3ccc(C(F)(F)F)cc3)cc3ncnn23)nc1N` [Example 186], with 0.027 µM. As to `Nc1nc(NCCNc2nc(-c3ccc(Cl)cc3Cl)cc3nc(CN4CCOCC4)nn23)ccc1C(=O)C(F)(F)F` [Example 194], the midpoint of inhibition, the IC50, lay at 0.0007 µM. Then `N#Cc1sc(NC2CCCN(c3nc(-c4ccc(Cl)cc4Cl)cc4ncnn34)C2)nc1N` (stereo not drawn) [Example 202], with 0.005 µM; and `Nc1nc(NCCNc2nc(-c3ccc(Cl)cc3Cl)cc3ncnn23)sc1C(=O)C(F)(F)F` [Example 203], with 0.003 µM.
